Here are results for five compounds from article PMC2698131 (Journal of biomolecular screening, 2009).

Molecules are shown by their SMILES. Where two headings read alike, the source gives them in different places.

Test [1] addresses T1, LARG-stimulated RhoA nucleotide binding (Homo sapiens, UniProt Q9NZN5).
T1 sequence (Q9NZN5 765-1138): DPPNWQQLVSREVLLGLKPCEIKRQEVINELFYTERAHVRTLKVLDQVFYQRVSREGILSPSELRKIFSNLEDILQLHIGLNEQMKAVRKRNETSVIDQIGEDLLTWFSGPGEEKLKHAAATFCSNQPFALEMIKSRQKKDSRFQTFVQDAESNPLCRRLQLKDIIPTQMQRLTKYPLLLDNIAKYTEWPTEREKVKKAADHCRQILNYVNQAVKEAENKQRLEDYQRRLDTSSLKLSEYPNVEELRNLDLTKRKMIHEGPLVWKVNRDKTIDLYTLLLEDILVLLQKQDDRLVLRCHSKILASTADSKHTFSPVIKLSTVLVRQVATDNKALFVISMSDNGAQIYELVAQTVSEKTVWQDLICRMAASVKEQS
Format: biochemical. The settings on record: 20 minutes; for Hill Slope [TR-GTPγS]: BODIPY-TR-GTPγS fluorescence polarization dose-response; for IC50: BODIPY-TR-GTPγS 500 nM, LARG 100 nM, RhoA (C189S) 2 μM. On the technique in general: Polarisation of emitted light reports the rotation of a fluorescent probe.

Test [2] has as its target T2, LARG-stimulated RhoA [35S] GTPγS binding (Homo sapiens, UniProt Q9NZN5).
T2 sequence (Q9NZN5 765-1138): T1 sequence (Q9NZN5 765-1138)
The experiment in a line: LARG-stimulated RhoA [35S] GTPγS guanine nucleotide binding assay. Format: biochemical. The settings on record: LARG 2 nM, RhoA (C189S) 500 nM, 25 minute time point. Background: GTPγS resists hydrolysis and so accumulates on activated G proteins.

As a reminder, the IC50 is the point on the concentration scale where inhibition reaches its midpoint. `Nc1ccc(O)c(-c2nc3cc(N)ccc3s2)c1` [CCG-5849, 4-amino-2-(5-amino-1,3-benzothiazol-2-yl)phenol]: in test [1], the “Hill Slope [TR-GTPγS]” value is given as -1.6. The half-maximal inhibitory concentration (IC50) in test [1] (IC50 (μM) [TR-GTPγS]) came out at 10.7 µM.

`O=c1oc2cc(O)ccc2cc1-c1csc(-c2ccc(-c3ccccc3)cc2)n1` [CCG-7167]: the “Hill Slope [TR-GTPγS]” value in test [1] is listed as -1.8. Further, the IC50 in test [1] (read-out: IC50 (μM) [TR-GTPγS]) amounted to 65.1 µM; in test [2] (read-out: IC50 (μM) [GTPγS35]), 4.2 µM. Moreover, in test [2], the “Hill Slope [GTPγS35]” value is -2.2.

On to `N=C1S/C(=C\c2ccc(-c3ccccc3[N+](=O)[O-])o2)C(=O)N1c1ccc2c(c1)OCO2` [CCG-13528, (5Z)-3-(2H-1,3-benzodioxol-5-yl)-2-imino-5-{[5-(2-nitrophenyl)furan-2-yl]methylidene}-1,3-thiazolidin-4-one], for which, in test [1], the “Hill Slope [TR-GTPγS]” value is -3.4. In addition, the IC50 in test [1] (IC50 (μM) [TR-GTPγS]) turned out to be 39.8 µM; in test [2] (IC50 (μM) [GTPγS35]), 4.6 µM. Further, in test [2], the “Hill Slope [GTPγS35]” value was -1.8.

Turning to `Cc1cccc(NCC(=O)N/N=C\c2c(Br)cc(Br)c(O)c2Br)c1` [CCG-14113, (N′Z)-2-[(3-methylphenyl)amino]-N′-[(2,4,6-tribromo-3-hydroxyphenyl)methylidene]acetohydrazide], the “Hill Slope [TR-GTPγS]” value in test [1] was -1.0. Besides, the IC50 in test [1] (IC50 (μM) [TR-GTPγS]) came out at 32.2 µM; in test [2] (IC50 (μM) [GTPγS35]) it was 32.8 µM. Also, the “Hill Slope [GTPγS35]” value in test [2] is listed as -7.1.

With `O=C1NC(=S)NC(=O)C1=Cc1ccc(-c2ccc(S(=O)(=O)Nc3nccs3)cc2)o1` [CCG-14631, 4-{5-[(4,6-dioxo-2-sulfanylidene-1,3-diazinan-5-ylidene)methyl]furan-2-yl}-N-(1,3-thiazol-2-yl)benzene-1-sulfonamide], the “Hill Slope [TR-GTPγS]” value in test [1] is listed as -0.7. Also, the concentration for half-maximal inhibition (IC50) in test [1] (IC50 (μM) [TR-GTPγS]) stood at 3.1 µM; in test [2] (IC50 (μM) [GTPγS35]), 7 µM. In addition, the “Hill Slope [GTPγS35]” value in test [2] is listed as -1.1.
